Tests used:
[1] = target: T1, full-length beta-Catenin (Uniprot ID P35222) (Homo sapiens, UniProt P35222); assay: Fluorescence polarization IC50 (beta-catenin / 5FAM-TCF4 10-53 competition); assay type: binding; settings: fluorescence polarization; read-out: beta-Catenin FP IC50
T1 construct: 10 nM full-length beta-Catenin (Uniprot ID P35222)
T1 sequence (P35222 1-781): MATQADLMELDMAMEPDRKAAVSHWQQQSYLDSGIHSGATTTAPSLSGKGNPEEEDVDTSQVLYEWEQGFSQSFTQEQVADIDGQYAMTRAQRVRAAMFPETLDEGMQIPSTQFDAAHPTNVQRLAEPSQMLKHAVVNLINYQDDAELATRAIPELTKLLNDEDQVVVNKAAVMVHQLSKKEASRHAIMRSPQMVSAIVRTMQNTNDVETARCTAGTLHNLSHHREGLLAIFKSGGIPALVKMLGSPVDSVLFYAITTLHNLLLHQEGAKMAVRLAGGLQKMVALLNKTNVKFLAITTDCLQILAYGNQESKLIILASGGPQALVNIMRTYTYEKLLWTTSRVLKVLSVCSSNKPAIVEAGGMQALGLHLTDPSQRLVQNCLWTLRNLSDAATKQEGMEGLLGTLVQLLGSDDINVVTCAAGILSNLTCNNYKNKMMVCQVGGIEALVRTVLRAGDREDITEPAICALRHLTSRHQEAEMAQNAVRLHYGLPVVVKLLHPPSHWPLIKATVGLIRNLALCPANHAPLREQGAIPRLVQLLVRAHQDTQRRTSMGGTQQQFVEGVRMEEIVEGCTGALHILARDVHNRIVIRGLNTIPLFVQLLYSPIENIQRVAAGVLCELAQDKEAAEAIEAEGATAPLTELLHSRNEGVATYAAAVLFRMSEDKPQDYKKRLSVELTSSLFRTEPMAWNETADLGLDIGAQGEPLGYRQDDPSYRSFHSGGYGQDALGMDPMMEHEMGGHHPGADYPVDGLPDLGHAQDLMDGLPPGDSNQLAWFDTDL

[2] = target: T2, beta-catenin/TCF4 engagement (Homo sapiens, UniProt P35222); assay: Nano-BRET target engagement assay (B-cat-Halo & TCF4-Luc in HEK293 cells); assay type: cell-based; settings: absolute IC50; read-out: NanoBRET Abs IC50
T2 construct: expressed in transfected cells; host or cells: HEK293
T2 sequence (P35222 1-781): T1 sequence (P35222 1-781)

[3] = tested on: TCF/LEF luciferase Reporter in DLD1 cells; assay: TCF reporter assay (DLD1 TCF/LEF luciferase reporter, Bright-Glo); assay type: cell-based; settings: read-out: DLD1 4% Abs IC50; DLD1 reporter, 4%, absolute IC50
How it was run: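 Readouts: Bright-Glo luciferase for reporter signal and CellTiter-Glo for cell viability, with absolute IC50 derived. The reporter clone came from lentiviral TCF/LEF-luciferase transduction of DLD1 cells, seeded 5000 cells/well in RPMI with 4% FBS and exposed overnight to serially diluted compounds.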

Compound | IC50 [1] [µM] | IC50 [2] [µM] | IC50 [3] [µM]
CCCC[C@H](NC(=O)[C@H](CC(C)C)NC(=O)[C@H](CCC(N)=O)NC(=O)[C@H](Cc1csc2ccccc12)NC(=O)[C@H](Cc1ccccc1C(F)(F)F)NC(=O)[C@]12CCN(C1)C(=O)OCCCC=CCCCC1(CCCC=CC[C@]3(CCCN3C(C)=O)C(=O)N[C@@H](CC(=O)O)C(=O)N[C@@H](CC(C)(C)C)C(=O)N1)C(=O)N[C@@H](CC(=O)O)C(=O)N[C@@H](Cc1cccc(C(=O)O)c1)C(=O)N[C@@H](C)C(=O)N[C@@H](C)C(=O)N[C@@H](Cc1ccccc1)C(=O)N[C@@H](CC(C)C)C(=O)N2)C(N)=O (stereo partly drawn) [I-2391, Ac-PL3-Asp-Npg-B5-Asp-3COOHF-Ala-Ala-Phe-Leu-PyrS2-2F3MeF-BztA-Gln-Leu-nLeu-NH2] | 0.11 | 8.2 | 0.7
CC(=O)N1CCC[C@]12CC=CCCCC1(CCCC=CCCCOC(=O)N3CC[C@@](C(=O)N[C@@H](Cc4ccccc4C(F)(F)F)C(=O)N[C@@H](Cc4csc5ccccc45)C(=O)N[C@@H](CCC(N)=O)C(=O)N[C@@H](CC(C)C)C(=O)N[C@@H](CCCNC(=N)N)C(N)=O)(C3)NC(=O)[C@H](CC(C)C)NC(=O)[C@H](Cc3ccccc3)NC(=O)[C@H](C)NC(=O)[C@H](C)NC(=O)[C@H](Cc3cccc(C(=O)O)c3)NC(=O)[C@H](CC(=O)O)NC1=O)NC(=O)[C@H](CC(C)(C)C)NC(=O)[C@H](CC(=O)O)NC2=O (stereo partly drawn) [I-2393, Ac-PL3-Asp-Npg-B5-Asp-3COOHF-Ala-Ala-Phe-Leu-PyrS2-2F3MeF-BztA-Gln-Leu-Arg-NH2] | 0.061 | > 20 | 5.6
CC(=O)N1CCC[C@]12CC=CCCCC1(CCCC=CCCCOC(=O)N3CC[C@@](C(=O)N[C@@H](Cc4ccccc4C(F)(F)F)C(=O)N[C@@H](Cc4csc5ccccc45)C(=O)N[C@@H](CCC(N)=O)C(=O)N[C@@H](Cc4ccccc4)C(=O)N[C@@H](C)C(N)=O)(C3)NC(=O)[C@H](CC(C)C)NC(=O)[C@H](Cc3ccccc3)NC(=O)[C@H](C)NC(=O)[C@H](C)NC(=O)[C@H](Cc3cccc(C(=O)O)c3)NC(=O)[C@H](CC(=O)O)NC1=O)NC(=O)[C@H](CC(C)(C)C)NC(=O)[C@H](CC(=O)O)NC2=O (stereo partly drawn) [I-2400, Ac-PL3-Asp-Npg-B5-Asp-3COOHF-Ala-Ala-Phe-Leu-PyrS2-2F3MeF-BztA-Gln-Phe-Ala-NH2] | 0.142 | 2.5 | 0.8
CC(=O)N1CCC[C@]12CC=CCCCC1(CCCC=CCCCOC(=O)N3CC[C@@](C(=O)N[C@@H](Cc4ccsc4)C(=O)N[C@@H](Cc4csc5ccccc45)C(=O)N[C@H](C(N)=O)[C@@H](C)O)(C3)NC(=O)[C@H](CC(N)=O)NC(=O)[C@H](Cc3ccccc3)NC(=O)[C@H](C)NC(=O)C(C)(C)NC(=O)[C@H]([C@@H](C)O)NC(=O)[C@H](CC(N)=O)NC1=O)NC(=O)[C@H](CC(C)(C)C)NC(=O)[C@H](CC(=O)O)NC2=O (stereo partly drawn) [I-2416, Ac-PL3-Asp-Npg-B5-Asn-Thr-Aib-Ala-Phe-Asn-PyrS2-3Thi-BztA-Thr-NH2] | 0.133 | > 20 | > 20
CC(=O)N1CCC[C@]12CC=CCCCC1(CCCC=CCCCOC(=O)N3CC[C@@](C(=O)N[C@@H](Cc4ccccc4)C(=O)N[C@@H](Cc4csc5ccccc45)C(=O)N[C@@H](CC(=O)N4CCOCC4)C(N)=O)(C3)NC(=O)[C@H](CC(C)C)NC(=O)[C@H](Cc3ccccc3)NC(=O)[C@H](C)NC(=O)[C@H](CCCCNC(C)C)NC(=O)[C@H](CCC(N)=O)NC(=O)[C@H](CC(=O)O)NC1=O)NC(=O)[C@H](CC1CCCCC1)NC(=O)[C@H](CC(N)=O)NC2=O (stereo partly drawn) [I-2426, Ac-PL3-Asn-Cha-B5-Asp-Gln-iPrLys-Ala-Phe-Leu-PyrS2-Phe-BztA-MorphAsn-NH2] | 0.046 | > 20 | > 20

The next compounds have a lower IC50 [1] than those just listed; values first:

IC50 [1] [µM] | IC50 [2] [µM] | IC50 [3] [µM] | Compound
0.037 | 4.4 | 0.8 | CC(=O)N1CCC[C@]12CC=CCCCC1(CCCC=CCCCOC(=O)N3CC[C@@](C(=O)N[C@@H](Cc4ccccc4C(F)(F)F)C(=O)N[C@@H](Cc4csc5ccccc45)C(=O)N[C@@H](CCC(N)=O)C(=O)N[C@H](C(=O)N[C@@H](C)C(N)=O)C(C)C)(C3)NC(=O)[C@H](CC(C)C)NC(=O)[C@H](Cc3ccccc3)NC(=O)[C@H](C)NC(=O)[C@H](C)NC(=O)[C@H](Cc3cccc(C(=O)O)c3)NC(=O)[C@H](CC(=O)O)NC1=O)NC(=O)[C@H](CC(C)(C)C)NC(=O)[C@H](CC(=O)O)NC2=O (stereo partly drawn) [I-2401, Ac-PL3-Asp-Npg-B5-Asp-3COOHF-Ala-Ala-Phe-Leu-PyrS2-2F3MeF-BztA-Gln-Val-Ala-NH2]
0.028 | 5.5 | 1.2 | CC(=O)N1CCC[C@]12CC=CCCCC1(CCCC=CCCCOC(=O)N3CC[C@@](C(=O)N[C@@H](Cc4ccccc4C(F)(F)F)C(=O)N[C@@H](Cc4csc5ccccc45)C(=O)N[C@@H](CCC(N)=O)C(=O)N[C@@H](CC(C)C)C(=O)N[C@H](C)C(N)=O)(C3)NC(=O)[C@H](CC(C)C)NC(=O)[C@H](Cc3ccccc3)NC(=O)[C@H](C)NC(=O)[C@H](C)NC(=O)[C@H](Cc3cccc(C(=O)O)c3)NC(=O)[C@H](CC(=O)O)NC1=O)NC(=O)[C@H](CC(C)(C)C)NC(=O)[C@H](CC(=O)O)NC2=O (stereo partly drawn) [I-2395, Ac-PL3-Asp-Npg-B5-Asp-3COOHF-Ala-Ala-Phe-Leu-PyrS2-2F3MeF-BztA-Gln-Leu-dAla-NH2]
0.028 | 3.6 | 1.3 | CC(=O)N1CCC[C@]12CC=CCCCC1(CCCC=CCCCOC(=O)N3CC[C@@](C(=O)N[C@@H](Cc4ccccc4C(F)(F)F)C(=O)N[C@@H](Cc4csc5ccccc45)C(=O)N[C@@H](CCC(N)=O)C(=O)N[C@@H](CC(C)C)C(=O)N[C@H](CCC(N)=O)C(N)=O)(C3)NC(=O)[C@H](CC(C)C)NC(=O)[C@H](Cc3ccccc3)NC(=O)[C@H](C)NC(=O)[C@H](C)NC(=O)[C@H](Cc3cccc(C(=O)O)c3)NC(=O)[C@H](CC(=O)O)NC1=O)NC(=O)[C@H](CC(C)(C)C)NC(=O)[C@H](CC(=O)O)NC2=O (stereo partly drawn) [I-2398, Ac-PL3-Asp-Npg-B5-Asp-3COOHF-Ala-Ala-Phe-Leu-PyrS2-2F3MeF-BztA-Gln-Leu-dGln-NH2]
0.022 | 9.1 | 1.4 | CC(=O)N1CCC[C@]12CC=CCCCC1(CCCC=CCCCOC(=O)N3CC[C@@](C(=O)N[C@@H](Cc4ccccc4C(F)(F)F)C(=O)N[C@@H](Cc4csc5ccccc45)C(=O)N[C@@H](CCC(N)=O)C(=O)N[C@@H](CC(C)C)C(=O)N[C@@H](CC(N)=O)C(N)=O)(C3)NC(=O)[C@H](CC(C)C)NC(=O)[C@H](Cc3ccccc3)NC(=O)[C@H](C)NC(=O)[C@H](C)NC(=O)[C@H](Cc3cccc(C(=O)O)c3)NC(=O)[C@H](CC(=O)O)NC1=O)NC(=O)[C@H](CC(C)(C)C)NC(=O)[C@H](CC(=O)O)NC2=O (stereo partly drawn) [I-2390, Ac-PL3-Asp-Npg-B5-Asp-3COOHF-Ala-Ala-Phe-Leu-PyrS2-2F3MeF-BztA-Gln-Leu-Asn-NH2]
0.017 | 2.8 | 2.2 | CC(=O)N1CCC[C@]12CC=CCCCC1(CCCC=CCCCOC(=O)N3CC[C@@](C(=O)N[C@@H](Cc4ccccc4C(F)(F)F)C(=O)N[C@@H](Cc4csc5ccccc45)C(=O)N[C@@H](CCC(N)=O)C(=O)N[C@@H](C)C(=O)N[C@@H](C)C(N)=O)(C3)NC(=O)[C@H](CC(C)C)NC(=O)[C@H](Cc3ccccc3)NC(=O)[C@H](C)NC(=O)[C@H](C)NC(=O)[C@H](Cc3cccc(C(=O)O)c3)NC(=O)[C@H](CC(=O)O)NC1=O)NC(=O)[C@H](CC(C)(C)C)NC(=O)[C@H](CC(=O)O)NC2=O (stereo partly drawn) [I-2399, Ac-PL3-Asp-Npg-B5-Asp-3COOHF-Ala-Ala-Phe-Leu-PyrS2-2F3MeF-BztA-Gln-Ala-Ala-NH2]
0.005 | 17.1 | 9.5 | CC(=O)N1CCC[C@]12CC=CCCCC1(CCCC=CCCCOC(=O)N3CC[C@@](C(=O)N[C@@H](Cc4ccsc4)C(=O)N[C@@H](Cc4csc5ccccc45)C(=O)N[C@@H](CCC(N)=O)C(N)=O)(C3)NC(=O)[C@H](CC(C)C)NC(=O)[C@H](Cc3ccccc3)NC(=O)[C@H](C)NC(=O)[C@H](C)NC(=O)[C@H](Cn3cc(C4(C(=O)O)CC4)nn3)NC(=O)[C@H](CC(=O)O)NC1=O)NC(=O)[C@H](CC(C)(C)C)NC(=O)[C@H](CC(=O)O)NC2=O (stereo partly drawn) [I-2445, Ac-PL3-Asp-Npg-B5-Asp-[CCpCO2H]TriAzDap-Ala-Ala-Phe-Leu-PyrS2-3Thi-BztA-Gln-NH2]

Source: US20240116985A1, “STAPLED PEPTIDES AND METHODS THEREOF” (priority 2020, published 2024)
